According to US20100069393A1, “METHOD OF TREATMENT AND AGENTS USEFUL FOR SAME” (PRANA BIOTECHNOLOGY LIMITED, priority 2006, published 2010):

Experiments:
[1] = Neurotoxicity assay: MTS viability of primary cortical neuronal cultures; assay type: cell-based, mouse; conditions: BL6Jx129sv, mouse, primary cortical neuronal cultures, Neuronal cells, read-out: Cytotoxicity (% viable at 1 and 10 uM); for viability at 4 days, 1 uM: test compound 1 uM; for viability at 4 days, 10 uM: test compound 10 uM
Protocol: Media was then replaced with Neurobasal media (Invitrogen Life Technologies) and B27 supplements (Invitrogen Life Technologies). Cultures were maintained at 37° C. in 5% CO2. Prior to experimentation, the culture medium was replaced with Neurobasal media and B27 minus antioxidants (Invitrogen Life Technologies).
Cell viability is determined using the MTS assay. Culture medium is replaced with fresh neurobasal medium plus B27 supplements minus antioxidants. 1/10th volume MTS solution (Cell Titre 96 Aqueous One, Promega Corporation) and incubated at 37° C., 2 hrs. 200 microlitre aliquots are measured with a spectrophotometer at 560 nm.
Neuronal cortical cells were cultured for five days as per Assay 2 in NB media and B27 supplement.
On day six the test compounds were added to the neuronal cell cultures in NB media and B27 supplement minus antioxidants.
Test compounds were dissolved in 100% DMSO to a concentration of 2.5 mM (10 mM if excess compound was weighed out per vial—then diluted to 2.5 mM). […] Test compounds were not added directly to cells, instead they were added to a 48 well ‘Drug Plate’ as comprised below:
The Drug Plate was incubated at 37° C. for 15 mins. 200 μl of each well was added in triplicate to the corresponding cell plate. The cell plate was incubated at 37 C, for 4 days.
On completion of the assay, 1/10 volume MTS was added per well of plate (i.e. 25 μl/250 μl). The plates were incubated at 37 C for 2 hrs, and then absorbance was read at 560 nm.

[2] = Cytotoxicity: viability of M17 cells; conditions: human, M17 neuroblastoma cells, Cytotoxicity (% viable at 1 and 10 uM); for viability at 1 uM: test compound 1 uM; for viability at 10 uM: test compound 10 uM

| SMILES | viability at 4 days, 1 uM [1] | viability at 4 days, 10 uM [1] | viability at 1 uM [2] | viability at 10 uM [2] |
| --- | --- | --- | --- | --- |
| O=S(=O)(O)c1cc(I)c(O)c2ncccc12 | 70% | 71% | – | – |
| Oc1c(I)cc(-c2ccccc2C(F)(F)F)c2cccnc12 | 91% | 90% | – | – |
| Cc1ccccc1-c1cc(I)c(O)c2ncccc12 | 99% | 38% | – | – |
| COc1ccccc1-c1cc(-c2ccccc2OC)c2cccnc2c1O | 100% | 52% | – | – |
| COc1ccccc1-c1cc(I)c(O)c2ncccc12 | 91% | 35% | – | – |
| Oc1c(-c2ccccc2C(F)(F)F)cc(Cl)c2cccnc12 | 96% | 93% | – | – |
| Oc1c(I)cc(-c2ccccc2F)c2cccnc12 | 92% | 34% | – | – |
| Oc1ccccc1-c1cc(Cl)c2cccnc2c1O | 100% | 70% | – | – |
| O=C(NCCc1c[nH]cn1)c1ccc2cccc(O)c2n1 | 100% | 100% | – | – |
| O=C(NCc1ccccn1)c1ccc2cccc(O)c2n1 | 96% | 85% | – | – |
| O=C(NCCc1ccccn1)c1ccc2cccc(O)c2n1 | 95% | 93% | – | – |
| O=C(Nc1ccccc1O)c1ccc2cccc(O)c2n1 | 104% | 92% | – | – |
| O=C(Nc1nccs1)c1ccc2cccc(O)c2n1 | 100% | 100% | – | – |
| Cc1cnc(NC(=O)c2ccc3cccc(O)c3n2)s1 | 94% | 68% | – | – |
| O=c1c(-c2ccc(Cl)cc2)cnc2c(O)cccn12 | 97% | 42% | 41.2% | 25.8% |
| Nn1cnc2c(O)c(Cl)cc(Cl)c2c1=O | 103% | 101% | 113% | 104% |
| O=c1c2cccc(O)c2ncn1Cc1ccccn1 | – | – | 109% | 96% |
| O=c1c2cccc(O)c2ncn1CC1CC1 | – | – | 104% | 111% |
| CCc1cnc2c(O)cccn2c1=O | – | – | 96.1% | 27.1% |
| CCn1cnc2c(O)ccc(Cl)c2c1=O | – | – | 101% | 85.4% |
| CCCn1cnc2c(O)ccc(Cl)c2c1=O | – | – | 89.4% | 79.4% |
| O=c1c2c(Cl)ccc(O)c2ncn1CC1CC1 | – | – | 86.3% | 57.6% |
| O=c1c2c(Cl)ccc(O)c2ncn1Cc1ccccn1 | – | – | 93.6% | 88.4% |
| O=c1c2c(Cl)cc(I)c(O)c2ncn1Cc1ccccn1 | – | – | 102% | 99.2% |
| CCc1cnc2c(O)cccn2c1=S | – | – | 93.3% | 73.7% |
| O=C(NCc1ccc(F)cc1)c1cnc2c(O)cccn2c1=O | – | – | 76.7% | 54.2% |

| SMILES | viability at 4 days, 1 uM [1] | viability at 4 days, 10 uM [1] | viability at 1 uM [2] | viability at 10 uM [2] |
| --- | --- | --- | --- | --- |
| O=c1c2cccc(O)c2ncn1-c1ccc(F)cc1 | – | – | 92.7% | 67.5% |
| CCCCNC(=O)c1cnc2c(O)cccn2c1=O | – | – | 98.8% | 48.4% |
| O=c1c2ccc(I)c(O)c2ncn1-c1ccc(F)cc1 | – | – | 94.6% | 30.2% |
| CCN(CC)CCn1cnc2c(O)c(I)ccc2c1=O | – | – | 106% | 41.4% |
| O=c1c2c(Cl)cc(I)c(O)c2ncn1-c1cccnc1 | – | – | 97.4% | 95% |
| CCCNC(=O)Cn1cnc2c(O)c(I)ccc2c1=O | – | – | 84.3% | 95.5% |
| CCN(CC)C(=O)Cn1cnc2c(O)c(I)ccc2c1=O | – | – | 92.2% | 98.7% |
| O=C1c2ccccc2C(=O)N1CCn1cnc2c(O)c(I)ccc2c1=O | – | – | 127% | 105% |
| O=C(Nc1nc2ccc(F)cc2s1)c1cnc2c(O)cccn2c1=O | – | – | 60.1% | 34.2% |
| CCCCCn1cnc2c(O)c(I)ccc2c1=O | – | – | 86.3% | 38.5% |
| O=C(Cn1cnc2c(O)cccc2c1=O)Nc1ccccn1 | – | – | 110% | 98.2% |
| CCC(C)Cn1cnc2c(O)cccc2c1=O (stereo not shown) | – | – | 103% | 47.2% |
| O=C1c2ccccc2C(=O)N1CCn1cnc2c(O)cccc2c1=O | – | – | 104% | 106% |
| CCC(C)Cn1cnc2c(O)c(I)ccc2c1=O (stereo not shown) | – | – | 42.8% | 19.3% |
| CCN(CC)C(=O)Cn1cnc2c(O)cccc2c1=O | – | – | 118% | 102% |
| O=C(Nc1cnc2ccccc2c1)c1cnc2c(O)cccn2c1=O | – | – | 102% | 32.8% |
| CCN(CC)CCNC(=O)c1cnc2c(O)cccn2c1=O | – | – | 115% | 103% |
| CCCCCn1cnc2c(O)c(Cl)cc(Cl)c2c1=O | – | – | 81.3% | 56.8% |
| CCC(C)Cn1cnc2c(O)c(Cl)cc(Cl)c2c1=O (stereo not shown) | – | – | 85.1% | 39.4% |
| O=c1c2cccc(O)c2ncn1-c1nc2ccc(F)cc2s1 | – | – | 99.1% | 73.7% |
| O=c1c2cccc(O)c2ncn1-c1ccc(F)cc1F | – | – | 104% | 104% |
| O=C(Nc1ccc(F)cc1F)c1cnc2c(O)cccn2c1=O | – | – | 99.4% | 67.1% |
| O=c1c2cccc(O)c2ncn1Cc1ccccc1 | – | – | 98.5% | 90.4% |
| O=c1c2cccc(O)c2ncn1Cc1nc2ccccc2[nH]1 | – | – | 107% | 108% |
| O=c1c2ccc(I)c(O)c2ncn1CCNS(=O)(=O)c1ccc(F)cc1 | – | – | 96.5% | 43% |
| CCCS(=O)(=O)NCCn1cnc2c(O)c(I)ccc2c1=O | – | – | 104% | 98.6% |

| SMILES | viability at 4 days, 1 uM [1] | viability at 4 days, 10 uM [1] | viability at 1 uM [2] | viability at 10 uM [2] |
| --- | --- | --- | --- | --- |
| O=c1c(CCCC2CCSS2)cnc2c(O)cccn12 (stereo not shown) | – | – | 106% | 27.2% |
| O=C1c2ccccc2C(=O)N1CCn1cnc2c(O)c(Cl)cc(Cl)c2c1=O | – | – | 104% | 101% |
| O=c1c(-c2ccc(F)cc2)cnc2c(O)cccn12 | – | – | 75.3% | 33.8% |
| O=c1c2cccc(O)c2ncn1-c1cccnc1 | – | – | 106% | 110% |
| O=C1NC(=O)c2cc(-n3cnc4c(O)cccc4c3=O)ccc21 | – | – | 102% | 103% |
| COc1ccc(-n2cnc3c(O)cccc3c2=O)cn1 | – | – | 97.8% | 110% |
| O=c1c2cccc(O)c2ncn1Cc1ccncc1 | – | – | 105% | 104% |
| O=c1c2cccc(O)c2ncn1CCc1ccccn1 | – | – | 107% | 96.2% |
| O=c1c2cccc(O)c2ncn1-c1nc2ccccc2[nH]1 | – | – | 108% | 103% |
| CCCCc1cnc2c(O)c(-c3ccc(F)cc3)ccn2c1=O | – | – | 101% | 37.9% |
| CCCCc1cnc2c(O)c(-c3ccc(OC)cc3)ccn2c1=O | – | – | 79.2% | 64.4% |
| CCCCc1cnc2c(O)c(-c3cccnc3)ccn2c1=O | – | – | 92.1% | 38.2% |
| O=c1c2cccc(O)c2ncn1Cc1ccc(F)cc1 | – | – | 97.2% | 60.5% |
| CCCCc1cnc2c(O)c(-c3cccc(OC)c3)ccn2c1=O | – | – | 94.5% | 59.1% |
| CCCc1cnc2c(O)c(Cl)ccn2c1=O | – | – | 98.1% | 38.9% |
| O=c1c2c(Cl)cc(Cl)c(O)c2ncn1-c1nc2ccccc2s1 | – | – | 82.7% | 63.9% |
| CNS(=O)(=O)Cc1ccc(-n2cnc3c(O)c(Cl)cc(Cl)c3c2=O)cc1 | – | – | 93% | 98% |
| O=c1c2c(Cl)cc(Cl)c(O)c2ncn1CCN1Cc2ccccc2C1 | – | – | 103% | 62.1% |
| O=c1c2c(Cl)cc(Cl)c(O)c2nc2n1CCC2 | – | – | 115% | 93.9% |
| O=c1c2c(Cl)cc(Cl)c(O)c2ncn1CC1CCN(Cc2ccccc2)CC1 | – | – | 109% | 83.4% |
| CCN(CC)C(=O)Cn1cnc2c(O)c(Cl)cc(Cl)c2c1=O | – | – | 122% | 104% |
| CCNCCn1cnc2c(O)c(Cl)cc(Cl)c2c1=O | – | – | 100% | 107% |
| O=c1c2c(Cl)cc(Cl)c(O)c2ncn1CCNC1CC1 | – | – | 98.8% | 96.2% |
| Cc1noc(-n2cnc3c(O)c(Cl)cc(Cl)c3c2=O)c1C | – | – | 99.6% | 95.4% |
| CC(C)Cn1c(CN(C)C)nc2c(O)c(Cl)cc(Cl)c2c1=O | – | – | 104% | 61.5% |
| Cc1nc2ccccc2c(=O)n1O | – | – | 101% | 115% |
